Assay [1] deals with Candida albicans (DSMZ#1386). The experiment in a line: Minimum Inhibitory Concentration (MIC) test and synergy index (Kull method), TSB pH 5. Format: cell-based. The note with it: DSM 1386 / DSMZ1386, Candida albicans DSM# 1386, 30° C., 72 hours, read-out: MIC results for single biocides. As for the experimental part:
(§1) The synergism of the biocides combination of the present invention was determined using the Minimum Inhibitory (MIC) test method described by Kull, F. C., et. al in Applied Microbiology 9:538-541 (1961). The formula to calculate the synergy index (SI) is SI=Qa/QA+Qb/QB Where • QA=minimum inhibitory concentration in ppm of compound A acting alone • Qa=minimum inhibitory concentration in ppm of compound A in the mixture. • QB=minimum inhibitory concentration in ppm of compound B acting alone. • Qb=minimum inhibitory concentration in ppm of compound B in the mixture. […] The Minimum Inhibitory Concentration Test (MIC) is designed to evaluate the lowest concentration of a biocide, biocide blend or biocide combination to prevent bacteria growing in a defined broth. […] The synergy testing was carried out as follows: • 1. The test was executed with a Hamilton MLStarPlus robot using automated turbidity reading with BioTek Synergy H4 plate reader. • 2. […] Reading of the results was carried out by measuring absorbance at 600 nm for each sample at the beginning of the test (tzero) and after incubation (tendpoint). tendpoint was chosen at 48 hours for bacteria and 72 hours for yeast. The difference in absorbance between tendpoint and tzero was used to determine growth (Δ>0.2) or no growth (Δ≤0.2).

The subject of assay [2] is Pseudomonas aeruginosa (DSMZ#939). The assay is described as above. Format: cell-based. The note with it: DSM 939 / DSMZ939, Pseudomonas aeruginosa DSM# 939, 30° C., 48 hours, read-out: MIC results for single biocides. The procedure:
as §1

The structures appear in SMILES notation.

Consider `CCCCCCCCCCCCN(CCCN)CCCN` [BDA, bis-(3-aminopropyl)dodecylamine], for which the minimum inhibitory concentration (MIC) was no less than 260 µg/mL in assay [1] and 200 µg/mL in assay [2].
For the compound `C/C=C/C=C/C(=O)O` [SA, sorbic acid], the values for the minimal inhibitory concentration (MIC) in assay [1] and in assay [2] were 725 µg/mL and 1230 µg/mL, respectively.

The values above are taken from patent US10709129B2, “Synergistic combination of bis-(3-aminopropyl)dodecylamine and sorbic acid” (DDP SPECIALTY ELECTRONIC MATERIALS US, INC., priority 2016, dated 2020).
